Test results taken from patent US9359451B2, “Methods and compositions for treating trauma-hemorrhage using estrogen and derivatives thereof” (THE UAB RESEARCH FOUNDATION, priority 2012, dated 2016).

What was measured:
Male Sprague Dawley rats = assay: 6 hour survival after soft tissue trauma and 60% hemorrhage without resuscitation; format: in vivo, rat; settings: for survival from 60% blood loss: FIG. 47, 6 hour interval after MBO, all saline vehicle controls died; for survival from 60% blood loss / survival percentage for 6 hr: no resuscitation
Protocol: Note that experimental conditions were sufficiently stringent that all saline vehicle control hemorrhaged rats died. The number of subject rats was vehicle control-20, E2-SO4-21, and EE3-SO4-20. Note that the time to begin the 6 hour interval starts after the maximum bleed out (MBO). It takes approximately 45 minutes to attain the MBO. Also please note that no resuscitation is given for the duration of the 6 hour test.
Survival studies with ethinyl 17α-estradiol-3-sulfate (EE3-SO4) in rats subjected to soft tissue trauma and 60% hemorrhage were performed as has been described for E2-SO4 and E2-cyclodextrin. Briefly, Male Sprague Dawley rats were anesthetized with isoflurane and received a 5 cm laparotomy. Cannulation was performed of 2 femoral arteries (one for bleeding and the one for blood pressure monitoring) and one femoral vein to administer drug or saline. Rats were bled to 62.9% total blood volume within 45 min with a mean arterial blood pressure of 40 mmHg achieved in 10 min and maintained at the pressure throughout the bleeding procedure. At the point of maximum bleed out (MBO), estrogen compounds were administered. Survival was monitored for 6 hours following MBO.
The optimum dose of EE-3-SO4 to promote rat survival for 6 hr was determined. The doses of 0.1 mg/kg (n=6), 0.3 mg/kg (n=6), 1.0 mg/kg (n=7) and 3.0 mg/kg (n=6) were used. The respective survival percentages were 16%, 50%, 87% and 50%, respectively (FIG. 41). Vehicle controls were matched for each group and the numbers of test rats were identical as well. No vehicle controls of any group survived for 6 hr (i.e., 100% death).

[1] = tested on: mean arterial blood pressure (MAP); assay: Mean arterial blood pressure spike after iv administration in hemorrhaged rats; format: in vivo, rat; settings: for “spike” in mean arterial blood pressure (MAP) just after administration: rapid iv injection in ~1 min at MBO
Excerpt: An additional practical matter to be resolved was removing or dampening the ever-present “spike” in mean arterial blood pressure (MAP) observed just after administration of EE-3-SO4, which was also observed with E2-CD and E2-SO4. Because this could be a threat to the hemorrhage patient by having this transient pressure rise destabilize and eject nascent hemostatic “plugs” in damaged vessels, a solution was developed for the potential problem. By giving the iv bolus of […] in a slightly longer interval over 5 min starting at MBO rather than a more rapid injection in ˜1 min (i.e., a “slow push”), the benefits of EE-3-SO4 remained while the MAP “spike” was removed. To determine the maximum reduction in the blood pressure spike studies were further conducted with a push over a 10 min period.

[2] = tested on: Sprague-Dawley adult male rats; assay: Traumatic brain injury (lateral fluid percussion): ICP, CPP and pbtO2 monitoring; format: in vivo, rat; settings: for intracranial pressure vs untreated vehicle controls: FIG. 44, measured over a 120 min period
Protocol: Sprague-Dawley adult male rats were divided into 4 groups: vehicle, E2-SO4 (1 mg/kg), sham+vehicle and sham+E2-SO4; n=5/group. The TBI model was lateral fluid percussion injury (LFP), induced via a hydraulic pressure pulse to the anesthetized rat's exposed brain. This was introduced through a burr hole in the lateral skull prepared one day prior to LFP. A single iv dose of E2-SO4 or saline vehicle was administered 1 hr after LFP. Physiological parameters were measured 24 hr post-injury.
(§1) In a second experiment, the efficacy of E2-SO4 treatment for TBI in a lateral fluid percussion (LFP) model was examined. This involved 6 groups of rats (n=5/group). All rats received a craniectomy. Groups 1, 2, 4 and 5 received LFP injury. Groups 1 and 4 were treated with E2 (1 mg/kg) 1 hr post-injury, groups 2 and 5 were vehicle (Veh)-treated and groups 3 and 6 were sham. Groups 1-3 underwent intracranial pressure (ICP), cerebral perfusion pressure (CPP) and partial oxygen pressure (pbtO2) monitoring. Groups 4-6 underwent fludoexoyglucose (FDG)-PET/CT and diffusion tensor imaging (DTI) analysis on days 1 and 7 post-induction. Relative standard uptake values (SUV) of upper half of brain to central value, fractional anisotropy (FA) and apparent diffusion coefficient (ADC) maps were calculated.
FIG. 48B is a plot of cerebral perfusion pressure, which is a derivative of mean arterial pressure less ICP. […] The X axis is shown for an extended 2 hours to confirm stability for the various probes used.
The clinical manifestation of edema after TBI can be seen as increased intracranial pressure, with lower brain perfusion pressure and reduced oxygen tension. […] FIG. 44 compares treatments for TBI with hormones, measured over a 120 min period to control the effects of the invasive probe on pressures. The treatments are progesterone (T+progesterone: magenta), progesterone plus E2-SO4 (T+E+P: brown), E2-SO4 (T+E2SO4: red) and EE-3-SO4 (T+EE-3SO4: yellow).

injured brain = assay: Traumatic brain injury: FDG-PET/CT, diffusion tensor imaging and MRI edema; format: in vivo, rat; settings: FIG. 43; day 1 and day 7 vs saline vehicle
Protocol: as §1
Rats were either treated with E2 or a saline vehicle control, where treatment is administered 1 hour after injury. […] The former is the area of deranged nerves, while the latter constitutes intact nerves.

isolated vascular rings = assay: Vascular reactivity of isolated vascular rings in a physiological bath; design: species or system rat or pig
Protocol: Data to delineate the mechanism of action for EE-3-SO4 vis-à-vis effects on the cardiovascular system was acquired. While it is well known that estrogens act on the vascular system by a variety of mechanisms including vasorelaxation per se, specific confirmation of this fact for EE-3-SO4 was needed. […] Vessels are contracted by a variety of agents (i.e., endothelin-1, phenylephrine). The action(s) are measured with a force transducer and recorded digitally. […] (see FIG. 42).

Male SD rats = assay: Survival and blood pressure after trauma-hemorrhage with 60% blood loss and no fluid resuscitation; format: in vivo, rat; settings: FIG. 21; trauma and major blood loss, crystalloid resuscitation after initial 3-hour interval; all untreated controls died within 3 hours
Protocol: 16 rats were subjected to 60% removal of blood volume, using the same protocol found in Example 5.
Furthermore, crystalloid fluid resuscitation was administered following an initial 3-hour interval after the trauma and major blood loss, and rats were followed for 7 days. It has been observed that rats which survive for the initial 3 hours uniformly go on to survive for prolonged period of time and were then sacrificed. The survival rate is 68% for estrogen-treated rats, while all untreated control rats have died within the initial 3-hour interval (see FIG. 21).
Although E2 administration after trauma-hemorrhage (T-H) and fluid resuscitation produces salutary effects on organ functions, it was not known if E2 has any beneficial effects after major blood loss in the absence of fluid resuscitation. Male SD rats ˜250 g) underwent T-H (tissue trauma, BP 40 mmHg in 10 min and maintained at that BP by further blood withdrawal until maximum bleed out (MBO, 60% of total blood volume) occurred (45:t5 min)). E2 i.v. (1 mg/Kg, 0.4 ml/Kg volume, i.e., 120 μL/300 g body weight) or vehicle (cyclodextrin, CD) was then infused. No additional fluid was given for 3 hours. If rats survived, they received Ringer's lactate, 4× the MBO volume. A custom-fabricated 31p coil was placed on the surface of the rat's liver after laparotomy in another group, and spectra acquired using 4.7T NMR spectroscopy via a 31p coil in real time before and during hemorrhagic shock. Shock increased phosphomonoester and Pi with a concomitant decrease in β-ATP in both groups.

Compound: C[C@]12CC[C@@H]3c4ccc(OS(=O)(=O)O)cc4CC[C@H]3[C@@H]1CC[C@@H]2OS(=O)(=O)O [E2-SO4, 17-β-estradiol 3, 17 disulfate]
- survival from 60% blood loss (Male Sprague Dawley rats): 66%
- “spike” in mean arterial blood pressure (MAP) just after administration [1]: also observed
- intracranial pressure vs untreated vehicle controls [2]: greatly reduce the pressure
- pbtO2 (brain tissue oxygen partial pressure) ([2]; TBI (LFP), 1 mg/kg iv 1 hr after injury, 24 hr post-injury, vehicle 15.8±1.3, sham 39.6): 34.1±1.6 mmHg
- ICP (intracranial pressure) ([2]; TBI (LFP), 1 mg/kg iv 1 hr after injury, measured 24 hr post-injury, TBI vehicle 17.4±0.5, sham 4.7): 7±0.4 mmHg
- edema in the injured brain (injured brain): can reduce edema in the injured brain

Compound: C#C[C@]1(O)CC[C@H]2[C@@H]3CCc4cc(OS(=O)(=O)O)ccc4[C@H]3CC[C@@]21C [EE-3-SO4, ethinyl 17α-estradiol-3-sulfate]
- survival percentage for 6 hr (Male Sprague Dawley rats; 0.1 mg/kg at MBO, no vehicle controls survived): 16%
- survival percentage for 6 hr (Male Sprague Dawley rats; 0.3 mg/kg at MBO): 50%
- survival percentage for 6 hr (Male Sprague Dawley rats; 1.0 mg/kg at MBO): 87%
- survival percentage for 6 hr (Male Sprague Dawley rats; 3.0 mg/kg at MBO): 50%
- survival from 60% blood loss (Male Sprague Dawley rats): 80%
- survival from 60% blood loss (Male Sprague Dawley rats; listed as EE3-SO4): exhibits enhanced survival as compared to E2-sulfate
- optimum dose to promote rat survival for 6 hr (Male Sprague Dawley rats; doses 0.1, 0.3, 1.0 and 3.0 mg/kg tested): 1.0 mg/kg
- reduction in the blood pressure spike with slow push ([1]; iv bolus over 5 min starting at MBO, no further benefit at 10 minutes): complete reduction at 5 minutes
- “spike” in mean arterial blood pressure (MAP) just after administration [1]: observed
- potency on a molar equivalent basis (isolated vascular rings; FIG. 42, compared with E2-SO4): more potent than E2-SO4
- range of doses with linear response in promoting vessel relaxation (isolated vascular rings; vessels contracted by endothelin-1 or phenylephrine, Kreb's buffer): 10 to 100000 nM
- intracranial pressure vs untreated vehicle controls [2]: greatly reduce the pressure
- edema in the injured brain (injured brain): can reduce edema in the injured brain

Compound: CN[C@@H](CCCNC(=N)N)C(=O)O [methyl arginine]
- antagonism of EE-3-SO4's vessel relaxation (isolated vascular rings; antagonist added to EE-3-SO4): relaxation can be inhibited

Compound: CC(=O)[C@H]1CC[C@H]2[C@@H]3CCC4=CC(=O)CC[C@]4(C)[C@H]3CC[C@]12C [progesterone]
- intracranial pressure vs untreated vehicle controls [2]: greatly reduce the pressure

Compound: estrogen
- survival rate (Male SD rats): 68%
